The text below walks through data of US20080319038A1, “PREVENTATIVE OR THERAPEUTIC AGENT FOR ACUTE RENAL FAILURE” (priority 2005, published 2008).

Experiment [1] concerns mice with LPS-induced inflammation. The experiment can be described thus: Effect of Fidarestat administration on renal damage in mice with lipopolysaccharide (LPS)-induced inflammation. Type of experiment: in vivo, CD-1 mice. The procedure:
Eight-week-old male CD-1 mice were used in the experiment. The mice were divided into 3 groups of normal control group (drug and LPS non-administration group), LPS control group (drug non-administration/LPS administration group), and LPS/Fidarestat administration group (Fidarestat and LPS administration group). First, 10 mg/kg of Fidarestat (which was prepared with a solubilizing agent solution) was administered into the caudal vein of the Fidarestat administration group and the solubilizing agent solution was administered into the caudal vein of the drug non-administration group. After 5 minutes, Lipopolysaccharides (LPS: Escherichia coli; 0111: B4, Sigma) was prepared with a physiological salt solution, which was administered to the LPS administration group intraperitoneally at a concentration of 2 mg/kg and a physiological salt solution was administered to the LPS non-administration group intraperitoneally. After 24 hours, each of the groups of mice was anesthetized by ether inhalation and blood was collected from the abdominal vein using a heparinized syringe. Then, centrifugation was carried out under the following conditions: at 4 degree C., at 1,000×g, for 10 min. Plasma was then obtained. Blood urea nitrogen (BUN) and creatinine were measured using an autoanalyzer (Hitachi). In this regard, as a solubilizing agent, NMDG (N-methyl-D-glucamine) was used.

In experiment [2] the test system is ischemia reperfusion mice. The experiment can be described thus: Effect of Fidarestat administration on renal damage in ischemia reperfusion mice. Particulars: for BUN / CK / Creatinine: blood, 3 h ischemia, 24 h reperfusion, Average ± SEM, n = 4. Type of experiment: in vivo, C57BL/6 mice. Here is the method: Sixteen- to twenty-week-old male C57BL/6 mice (Wild) were used in the experiment. The mice were divided into 4 groups, which were designated as sham-operation group (normal control group), ischemia operation group (ischemia reperfusion control group), ischemia operation+Fidarestat 40 mg/kg administration group (ischemia reperfusion/Fidarestat 40 mg/kg administration group), and ischemia operation+Fidarestat 150 mg/kg administration group (ischemia reperfusion/Fidarestat 150 mg/kg administration group), respectively. 40 or 150 mg/kg/day of Fidarestat was mixed in their diet and administered to the ischemia operation+Fidarestat administration groups 7 days before ischemia operation. Plantar blood flow in these mice was measured with a laser blood flow meter under isoflurane anesthesia, and then the abdomen was incised. The abdominal aorta was exposed under a stereoscopic microscope and clipping was carried out at the portion distal to the renal artery bifurcation. Further, the right common iliac artery was also clipped and the right femoral artery was finally clipped. Thereafter, the abdomen was closed. The time of ischemia onset was set to the time when the femoral artery was clipped. From the time of ischemia onset, plantar blood flow was measured with a laser blood flow meter and the ischemia was confirmed. The clipping was released in order of the right femoral artery, right common iliac artery, and abdominal aorta in 3 hours from the ischemia onset and reperfusion was performed. At the time, the reperfusion status was confirmed with the laser blood flow meter. The reperfusion time was set to the time when the clipping of the aorta was released. The reperfusion was performed for 24 hours and the general condition was observed. Thereafter, heart blood was collected from the right atrium under isoflurane anesthesia. The collected heart blood was mixed with heparin and centrifuged at 3000 g. Then, the supernatant was collected therefrom, which was frozen for preservation at −80 degrees C. to use in a serologic test for CK, BUN, creatinine, and the like.

The mark [3] stands for this setting: plasma, Fidarestat 10 mg/kg caudal vein 5 min before LPS 2 mg/kg i.p., 24 hours after LPS, Average ± SEM, n = 7.
Setting [4] is: Fidarestat 40 mg/kg/day in diet from 7 days before ischemia.
Setting [5] is: Fidarestat 150 mg/kg/day in diet from 7 days before ischemia.

With `NC(=O)[C@@H]1C[C@]2(NC(=O)NC2=O)c2cc(F)ccc2O1` [Fidarestat, (2S,4S)-6-fluoro-2′,5′-dioxospiro[chroman-4,4′-imidazolidine]-2-carboxamide], the “effect on renal function impairment” value in experiment [1] (model with LPS-induced inflammation, Fidarestat 10 mg/kg i.v.) is “effective”. The BUN in experiment [1] (setting [3]) was found to be 24.3 ± 2.2 mg/dL; in experiment [2] (setting [4]), 40 ± 11 mg/dL; in experiment [2] (setting [5]), 31 ± 1 mg/dL. The Creatinine in experiment [1] (setting [3]) worked out at 0.067 ± 0.003 mg/dL; in experiment [2] (setting [4]), 0.12 ± 0.01 mg/dL; in experiment [2] (setting [5]), 0.10 ± 0.01 mg/dL. Also, the CK in experiment [2] (setting [4]) is given as 6978 ± 4904 IU/L; in experiment [2] (setting [5]) it was 2348 ± 530 IU/L. Besides, the “onset of acute renal failure” value in experiment [2] (ischemia reperfusion/Fidarestat 40 mg/kg and 150 mg/kg administration groups) was “completely suppressed”.
